This is an account of results in patent publication US11738064B2, “Pharmaceutical composition for preventing and treating eye diseases, containing as active ingredient, fusion protein in which tissue-penetrating peptide and anti-vascular endothelial growth factor preparation are fused” (ILDONG PHARM CO., LTD., priority 2015, dated 2023).

Series [1] concerns the target T1, VEGF-A (Homo sapiens, UniProt P15692).
T1 sequence (P15692 207-395): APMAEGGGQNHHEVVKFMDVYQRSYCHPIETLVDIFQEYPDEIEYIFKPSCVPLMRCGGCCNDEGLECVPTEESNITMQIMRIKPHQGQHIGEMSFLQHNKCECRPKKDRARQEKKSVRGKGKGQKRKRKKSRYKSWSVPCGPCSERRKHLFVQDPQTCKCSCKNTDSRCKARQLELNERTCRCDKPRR
Particulars: designed property, versus ranibizumab; cited from earlier work.

The conditions of series [2]: cited from earlier work.
Series [3] has as its system corneal neovascularization. The series is described as follows: Corneal neovascularization resistance model. Type of series: in vivo, C57BL/6 mice. The note with it: eye drops for 10 days from 10 days after alkaline burn; FIG. 7B.
Description: The 6-week old female C57BL/6 mice were used. After anesthesia (Zoletil 40 mg/kg+Rompun 5 mg/kg, IP), the NaOH filter paper was placed on the left eye cornea to induce an alkaline burn for 30 seconds, followed by sufficient washing with 40 ml of PBS, thereby constructing corneal neovascularization animal models. […] Each drug was administered through eye drops at a concentration of 5 mg/ml with 5 μl each time, four times a day for 5 days. After the completion of the administration, the eyeballs were extracted, immersed and fixed in 4% paraformaldehyde solution for one hour, and washed with PBS, and then the cornea was isolated using a dissecting microscope. The isolated cornea was additionally fixed in a 4% paraformaldehyde solution for 12 hours. The fixed cornea was washed with PBS, and subjected to reaction in a blocking buffer (PBS, 0.3% BSA, 0.1% Triton X100) at room temperature for 2 hours. A primary antibody (BD Pharmingen) specific to PECAM-1 (CD31) as a vascular endothelial marker and a primary antibody (Millipore) specific to NG-2 as a pericyte marker were reacted overnight in a refrigerator, and secondary fluorescent antibodies (Alexa Fluor488, Alexa Fluor594, Life Technologies) were reacted at room temperature for 4 hours for tissue staining. […]
A short description of series [4]: Ex-vivo ocular penetration model, extracted eyeballs immersed in FITC-conjugated protein. Type of series: in vitro ADME, C57BL/6 mouse. Particulars: confocal microscope; FIG. 8E.
Description: The eyeballs were fixed at 4° C. for 4 hours using Davidson's solution (glacial acetic acid:ethyl alcohol:neutralized formalin:distilled water=1:3:2:3), and then the anterior tissue of the conjunctiva was partially cut with scissors, and the retinal metaplasia was minimized in a paraffin slide preparation step. After overnight fixation at 4° C. using 10% (v/v) formalin solution, moisture was removed from the tissues by increasing the concentration of alcohol from low to high concentration using an automatic infiltration machine, followed by transparency with xylene and then paraffin penetration. The paraffin penetration-completed tissue was placed in a base mold to make a paraffin block, and 4 sections were prepared using a microtome. The paraffin sections were unfolded to be attached to slides pre-coated with albumin, poly-L-lysine, and saline in a floating constant-temperature water bath. The tissue slides were deparaffinized and then directly mounted, and then FITC was observed using a confocal microscope to investigate the ocular tissue penetration and distribution.
Thereafter, while unconjugated FITC was removed using PD-10 desalting column, the buffer was changed with PBS, and then the purified product was quantified, and used as a sample for efficacy evaluation.
The test system of series [5] is retinal neovascularization. The series is described as follows: Oxygen-induced retinopathy (OIR) model, retinal neovascularization (isolectin B4, tufts). Particulars: 10 μg/eye intraocular; FIG. 12B. The format is in vivo, C57BL/6 mice.
Description: (§1) Mice burn by crossbreeding of 7- to 8-week old C57BL/6 purchased from Koatech were used as experimental animals. On day 7 after birth, mice (postnatal day 7, P7) were placed in an oxygen chamber, and the oxygen concentration in the chamber was adjusted and maintained at 75% (hyperoxia) for 5 days (P7 to P11). The illumination in the laboratory was turned on or off every 12 hours and the temperature was maintained at 24±2° C. The mice were fed with free access to feed and drinking water. After 5 days, the mice were exposed to inner air (normoxia) out of the chamber for 5 days (P12-P17) to induce retinal angiogenesis. For drug administration, the mice were randomly divided into five groups (10 mice per group) immediately after the exposure to normoxia on P12, as shown in Table 7. Drugs were administered intraocularly at concentrations appropriate for respective groups using Hamilton syringe (Hamilton, USA). The same amount of vehicle was administered to the OIR group, and 10 μg/eye of ranibizumab was administered as control drug. Subjects with surgical damage caused by drug administration or subjects with lens opacities or the like were excluded from subsequent experiment procedures.
In addition, the extent of neovascularization in the retina was also evaluated. […]
For series [6], the system named is macular degeneration. Particulars: cited from earlier work.
Series [7] has as its system choroidal neovascularization. The series is described as follows: Laser-induced choroidal neovascularization (CNV) model. The format is in vivo, Brown Norway (BN) rats. Particulars: 100 μg/eye intraocular, 10 days after administration; FIG. 10B.
Description: Seven-week old male Brown Norway (BN) rats (SLC Japan, Tokyo, Japan) were acclimated for one week, and then anesthetized by peritoneal injection of pentobarbital sodium (Hanlim Pharm, 25 mg/kg). Thereafter, the pupil was dilated with 1% tropicamide eye drops, and then six photocoagulation spots were formed around the optic nerve head using a diode laser (wavelength, 532 nm; diameter, 100 μm; power, 150 mW; time period, 0.1 sec). The destruction of Bruch's membrane was verified by the formation of characteristic bubbles. The eyeballs with hemorrhage or no bubbles were excluded from the subsequent experimental procedures. Drugs were administered intraocularly at concentrations appropriate for respective groups using Hamilton syringe (Hamilton, USA). The same amount of vehicle was administered to the CNV group, and 100 μg/eye of ranibizumab was administered as control drug. Subjects with surgical damage caused by drug administration or subjects with lens opacities or the like were excluded from subsequent experimental procedures.
The degree of choroidal neovascularization was evaluated 10 days after drug administration. The eyeball of each rat was extracted, and then incised at a region adjacent to the cornea and sclera under a microscope. […] The sizes of subretinal neovascular areas were analyzed using Image J software (NIH, USA).
For series [8] the following is noted: half-dose (250 μg) dropped 6 times at 2 hour intervals in rabbits; cited from earlier work.
Series [9] has as its system vascular leakage. Kind of series: Oxygen-induced retinopathy (OIR) model, vascular leakage (dextran fluorescence extravasation). Particulars: 10 μg/eye intraocular on P12, evaluated P17; FIG. 11A. The format is in vivo, C57BL/6 mice.
Description: as §1
The degree of retinal edema was evaluated on day 17 after birth. […] The amount of fluorescence extravasated out of vessels was quantitatively analyzed using Image J.
Series [10] addresses neuropilin 1 (NRP 1). The series is described as follows: SPR (Biacore 2000) assay of binding ability to neuropilin 1 receptor. Particulars: Table 4, receptor NRP 1, read-out: Affinity, KD. How it is done: First, the affinity to a neuropilin receptor was performed on neuropilin 1 (NRP 1). Specifically, surface plasmon resonance (SPR) was performed using Biacore 2000 (GE Healthcare) in order to investigate the binding ability of TPP to the neuropilin 1 domain. Specifically, each neuropilin 1 domain was diluted in 10 mM Na-acetate buffer (pH 4.0), and fixed on CMS sensor chip (GE Healthcare, USA) at about 1,000 response units (RU). […] After the association/dissociation analysis, the CMS chip was regenerated by allowing buffer (20 mM NaOH, 1M NaCl, pH 10.0) to flow at a flow rate of 30 μl/min for 1 minute.
After the Biacore CMS chip was activated with EDC/NHS mixture, target protein NRP1 was diluted in a fixing buffer (10 mM sodium acetate, pH 5.5), and fixed to final 79 Ru through calculation at Rmax: 200.
Background: SPR reads the build-up and loss of mass on a sensor chip optically.

Chain of neuropilin 1 (NRP 1) (O14786 273-586 limits assumed): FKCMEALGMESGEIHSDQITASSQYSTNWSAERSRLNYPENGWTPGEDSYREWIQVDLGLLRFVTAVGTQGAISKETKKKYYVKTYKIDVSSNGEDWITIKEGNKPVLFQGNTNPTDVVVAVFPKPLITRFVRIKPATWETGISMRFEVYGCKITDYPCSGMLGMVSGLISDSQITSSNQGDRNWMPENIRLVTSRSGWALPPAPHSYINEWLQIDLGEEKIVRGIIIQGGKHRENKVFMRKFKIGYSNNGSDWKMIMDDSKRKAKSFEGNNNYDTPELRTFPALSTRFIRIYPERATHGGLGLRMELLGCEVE

For the molecule aflibercept, the “increase in binding ability to VEGF-A” value in series [1] is listed as 100 fold.
On to conbercept, for which the “bioavailability at the time of applying eye drops” value in [2] is “less than 5%”.
As to ranibizumab, the “neovessel reducing efficacy, in words” value in [3] was “no significant efficacy”. The “distribution in cross-section of the ocular retinal tissue” value in series [4] is listed as “mostly present near the sclera”. Also, the “degree of neovascularization relative to vehicle group, in words” value in series [5] is on record as “the same degree of neovascularization”. For the same molecule, the “patients with macular degeneration showing response” value in series [6] (at the time of development) is recorded as “about 90%”. Further, the “responding patients showing a therapeutic effect, such as eyesight improvement” value in series [6] (human, in vivo) was 30%. Also, in [7], the “inhibition of (neo)vascularization in comparison with the vehicle group” value is on record as “about 31%”. For the same molecule, the “time to reach the retinal tissue after eye drops” value in series [8] was 3 to 7 days. Besides, in series [9], the “vascular leakage compared to the vehicle group” value was “somewhat reduced”.

B1: Sema3A: secreted class 3 semaphorin ligand binding to neuropilin (protein)
chain: NYQNGKNNVPRLKLSYKEMLESNNVITFNGLANSSSYHTFLLDEERSRLYVGAKDHIFSFDLVNIKDFQKIVWPVSYTRRDECKWAGKDILKECANFIKVLKAYNQTHLYACGTGAFHPICTYIEIGHHPEDNIFKLENSHFENGRGKSPYDPKLLTASLLIDGELYSGTAADFMGRDFAIFRTLGHHHPIRTEQHDSRWLNDPKFISAHLISESDNPEDDKVYFFFRENAIDGEHSGKATHARIGQICKNDFGGHRSLVNKWTTFLKARLICSVPGPNGIDTHFDELQDVFLMNFKDPKNPVVYGVFTTSSNIFKGSAVCMYSMSDVRRVFLGPYAHRDGPNYQWVPYQGRVPYPRPGTCPSKTFGGFDSTKDLPDDVITFARSHPAMYNPVFPMNNRPIVIKTDVNYQFTQIVVDRVDAEDGQYDVMFIGTDVGTVLKVVSIPKETWYDLEEVLLEEMTVFREPTAISAMELSTKQQQLYIGSTAGVAQLPLHRCDIYGKACAECCLARDPYCAWDGSACSRYFPTAKRRTRRQDIRNGDPLTHCSDLHHDNHHGHSPEERIIYGVENSSTFLECSPKSQRALVYWQFQRRNEERKEEIRVDDHIIRTDQGLLLRSLQQKDSGNYLCHAVEHGFIQTLLKVTLEVIDTEHLEELLHKDDDGDGSKTKEMSNSMTPSQKVWYRDFMQLINHPNLNTMDEFCEQVWKRDRKQRRQRPGHTPGNSNKWKHLQENKKGRNRRTHEFERAPRSV
In the case of B1, the Kd (commonly the constant that tells how readily two partners part at equilibrium) in [10] turned out to be 27.9 nM.
